Experimental findings from patent US8669266B2, “Quinoline-carboxamide derivatives as P2Y12 antagonists” (Sanofi, priority 2007, dated 2014) are described below.

Sequence of human P2Y12 receptor (Q9H244 whole entry): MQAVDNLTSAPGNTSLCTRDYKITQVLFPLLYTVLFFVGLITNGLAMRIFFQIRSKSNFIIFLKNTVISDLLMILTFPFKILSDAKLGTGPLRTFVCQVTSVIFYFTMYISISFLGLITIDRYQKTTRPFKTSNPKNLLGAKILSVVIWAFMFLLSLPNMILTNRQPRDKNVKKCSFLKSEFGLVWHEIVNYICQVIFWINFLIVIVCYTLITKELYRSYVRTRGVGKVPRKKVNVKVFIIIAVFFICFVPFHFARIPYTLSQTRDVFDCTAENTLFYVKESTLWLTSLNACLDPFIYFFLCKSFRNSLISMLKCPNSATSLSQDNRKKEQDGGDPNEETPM

One assay has as its target human P2Y12 receptor (Homo sapiens (Human), UniProt Q9H244). Put plainly: Human P2Y12 recombinant cell membrane binding assay with 33P 2MeS-ADP. Conditions: CHO cell membranes with recombinant human P2Y12; competition against 33P 2MeS-ADP. The procedure:
The ability of the compounds of the formula I to inhibit the P2Y12 receptor can be assessed by determining the concentration of the compound of the formula I that binds to the human P2Y12 Recombinant Cell Membrane Binding Assay with 33P 2MeS-ADP.
Human P2Y12 Recombinant Cell Membrane Binding Assay
The ability of a test compound to bind to the P2Y12 receptor was evaluated in a recombinant cell membrane binding assay. In this competitive binding assay, the test compound competed against a radiolabeled agonist for binding to the P2Y12 receptor, expressed on the cell membrane. Inhibition of binding of the labeled material was measured and correlated to the amount and potency of the test compound.
As source of P2Y12, a membrane preparation was prepared from Chinese Hamster Ovary (CHO) cells with recombinant expression of the human P2Y12 receptor according to standard procedures.
Next, wells were washed four times with 400 μl/well of stop buffer on a plate vacuum. The plate was disassembled and allowed to air dry overnight with the filter side up over night. […] The top of the filter plate was sealed with plastic plate covers. The sealed filter plate were incubated 2 hours at RT. A Microbeta Scintillation Counter was used to measure counts.
Compounds were diluted as 10 mM DMSO stocks and tested in a four-point, five-fold dilution series run in triplicate beginning at 10 μM, final concentration. Data were analyzed using a four-parameter curve fit with a fixed minimum and maximum experimentally defined as the average positive and negative controls on each plate.
Regarding `CCOC(=O)[C@@H]1CCCN1C(=O)COc1cc(C(=O)N[C@@H](CCC(=O)O)C(=O)N2CCN(C(=O)OCC)CC2)nc2cc(C)ccc12` [Example 11, 4-[(S)-4-Carboxy-2-({4-[2-((S)-2-ethoxycarbonyl-pyrrolidin-1-yl)-2-oxo-ethoxy]-7-methyl-quinoline-2-carbonyl}-amino)-butyryl]-piperazine-1-carboxylic acid ethyl ester], the IC50 (usually the concentration that inhibits the measured activity by half) is 0.132 µM.

For `CCOC(=O)N1CCN(C(=O)[C@H](CCC(=O)O)NC(=O)c2cc(OCC(=O)N3CCC[C@H]3C(=O)NCC(F)(F)F)c3ccccc3n2)CC1` [Example 121, 4-{(S)-4-Carboxy-2-[(4-{2-oxo-2-[(S)-2-(2,2,2-trifluoro-ethylcarbamoyl)-pyrrolidin-1-yl]-ethoxy}-quinoline-2-carbonyl)-amino]-butyryl}-piperazine-1-carboxylic acid ethyl ester], the IC50 was 0.067 µM.

In the next assay the test system is human platelet rich plasma. Put plainly: Inhibition of human platelet aggregation, "Born"-method in single cuvettes (ADP-induced, platelet rich plasma). In kind it is cell-based. To be noted: Platelet, 0.1 h, human PRP, aggregation induced by ADP, measured over 6 minutes at 37° C. Here is the method: Alternatively to a binding assay which measures a compound's ability to bind to the P2Y12 receptor, the effect on cellular function was also determined. This ability of the compound was evaluated in two platelet aggregation assays: in 96-well plates and with the “Born”-method using single cuvettes.
Whole blood was collected from healthy volunteers using 20 ml syringes containing 2 ml of buffered Citrate. The anticoagulated whole blood was transferred into 15 ml polypropylene conical tubes (10 ml per tube). The tubes were centrifuged for 15 minutes at 340×g at RT without using the centrifuge brake. This procedure leads to a pellet of cellular components and a supernatant of platelet rich plasma (PRP). The PRP layer was collected from each tube and pooled for each donor. To avoid carry over of cellular components following centrifugation, approximately 5 ml of PRP was left in the tube. The platelet concentration was determined using a Coulter Counter.
The 15 ml tubes containing the pellet of cellular components were centrifuged again for 10 minutes at 1940×g. This pelleted out most particulate blood constituents remaining, leaving a layer of Platelet Poor Plasma (PPP). The PPP was collected for each donor. The PRP layer, previously set aside, was diluted with PPP to a final concentration of approximately 3×E8 platelets/ml with the PPP.
The human platelet aggregation assay is performed in single use cuvettes using the platelet aggregation profiler (PAP-4 or -8, Bio/Data corporation).
In the assay cuvette 4 μl of test compound at 100× final concentration in DMSO is mixed with 392 μl fresh PRP and incubated for 2 minutes at 37° C. with 1.200 rpm stirring. Following that incubation period, 4 μl of 250 μM ADP is added to the reaction mix. This addition of ADP is sufficient to induce aggregation in the absence of an inhibitor. After that aggregation is measured over 6 minutes at 37° C. with 1.200 rpm stirring. Results of the assay are expressed as % inhibition, and are calculated using maximum aggregation (Tmax) or area under curve (AUC) of the absorbance over 6 minutes.
Turning to `CCOC(=O)N1CCN(C(=O)[C@H](CCC(=O)O)NC(=O)c2cc(OCC(=O)N3CCC[C@H]3C(=O)NC3CC3)c3ccc(C)cc3n2)CC1` [Example 3, 4-[(S)-4-Carboxy-2-({4-[2-((S)-2-cyclopropylcarbamoyl-pyrrolidin-1-yl)-2-oxo-ethoxy]-7-methyl-quinoline-2-carbonyl}-amino)-butyryl]-piperazine-1-carboxylic acid ethyl ester], 0.18 µM corresponded to half-maximal inhibition (IC50).

`CCOC(=O)N1CCN(C(=O)[C@H](CCC(=O)O)NC(=O)c2cc(OCC(=O)N3CCC[C@H]3C(=O)O)c3ccc(C)cc3n2)CC1` [Example 17, 4-[(S)-4-Carboxy-2-({4-[2-((S)-2-carboxy-pyrrolidin-1-yl)-2-oxo-ethoxy]-7-methyl-quinoline-2-carbonyl}-amino)-butyryl]-piperazine-1-carboxylic acid ethyl ester] displayed an IC50 of 0.24 µM.

`CCOC(=O)N1CCN(C(=O)[C@H](CCC(=O)O)NC(=O)c2cc(OCC(=O)N3CCC(S(C)(=O)=O)C3)c3ccc(C)cc3n2)CC1` (stereo partly drawn) [Example 18, 4-[(S)-4-Carboxy-2-({4-[2-(3-methanesulfonyl-pyrrolidin-1-yl)-2-oxo-ethoxy]-7-methyl-quinoline-2-carbonyl}-amino)-butyryl]-piperazine-1-carboxylic acid ethyl ester]: the IC50 came out at 0.16 µM.

In turn, `CCOC(=O)N1CCN(C(=O)[C@H](CCC(=O)O)NC(=O)c2cc(OCC(=O)N3CC[C@H](CO)C3)c3ccc(C)cc3n2)CC1` [Example 50, 4-[(S)-4-Carboxy-2-({4-[2-((S)-3-hydroxymethyl-pyrrolidin-1-yl)-2-oxo-ethoxy]-7-methyl-quinoline-2-carbonyl}-amino)-butyryl]-piperazine-1-carboxylic acid ethyl ester] displayed an IC50 of 0.59 µM.

Molecule `CCOC(=O)N1CCN(C(=O)[C@H](CCC(=O)O)NC(=O)c2cc(OCC(=O)N3CC(O)CC3C(=O)OC)c3ccccc3n2)CC1` (stereo partly drawn) [Example 71, 4-[(S)-4-Carboxy-2-({4-[2-(4-hydroxy-2-methoxycarbonyl-pyrrolidin-1-yl)-2-oxo-ethoxy]-quinoline-2-carbonyl}-amino)-butyryl]-piperazine-1-carboxylic acid ethyl ester] yielded an IC50 of 0.31 µM.

Molecule `CCOC(=O)[C@@H]1C[C@@H](O)CN1C(=O)COc1cc(C(=O)N[C@@H](CCC(=O)O)C(=O)N2CCN(C(=O)OCC)CC2)nc2ccccc12` [Example 75, 4-[(S)-4-Carboxy-2-({4-[2-((2S,4R)-2-ethoxycarbonyl-4-hydroxy-pyrrolidin-1-yl)-2-oxo-ethoxy]-quinoline-2-carbonyl}-amino)-butyryl]-piperazine-1-carboxylic acid ethyl ester] displayed a concentration for half-maximal inhibition (IC50) of 0.19 µM.

Regarding `CCOC(=O)N1CCN(C(=O)[C@H](CCC(=O)O)NC(=O)c2cc(O[C@H](C)C(=O)N3CCC[C@H]3C(=O)NC3CCCC3)c3ccc(C)cc3n2)CC1` [Example 294, 4-[(S)-4-Carboxy-2-({4-[(R)-2-((S)-2-cyclopentylcarbamoyl-pyrrolidin-1-yl)-1-methyl-2-oxo-ethoxy]-7-methyl-quinoline-2-carbonyl}-amino)-butyryl]-piperazine-1-carboxylic acid ethyl ester], the IC50 came out at 0.03 µM.

The molecule `CCOC(=O)N1CCN(C(=O)[C@H](CCC(=O)O)NC(=O)c2cc(OCC(=O)N3CCCC3c3ccco3)c3ccccc3n2)CC1` (stereo partly drawn) [Example 317, 4-[(S)-4-Carboxy-2-({4-[2-(2-furan-2-yl-pyrrolidin-1-yl)-2-oxo-ethoxy]-quinoline-2-carbonyl}-amino)-butyryl]-piperazine-1-carboxylic acid ethyl ester] displayed an IC50 of 0.29 µM.

On to `CCCCOC(=O)N1CCN(C(=O)CNC(=O)c2cc(OCC(=O)N3CCC[C@H]3C(=O)NC3CCC3)c3ccc(C)cc3n2)CC1` [Example 435, 4-[2-({4-[2-((S)-2-Cyclobutylcarbamoyl-pyrrolidin-1-yl)-2-oxo-ethoxy]-7-methyl-quinoline-2-carbonyl}-amino)-acetyl]-piperazine-1-carboxylic acid butyl ester], for which half-maximal inhibition (IC50) was put at 0.03 µM.

In turn, `CCCCOC(=O)N1CCN(C(=O)[C@H](CCC(=O)O)NC(=O)c2cc(OCC(=O)N3CCC[C@H]3c3ccccc3)c3ccc(C)cc3n2)CC1` [Example 481, 4-[(S)-4-Carboxy-2-({7-methyl-4-[2-oxo-2-((S)-2-phenyl-pyrrolidin-1-yl)-ethoxy]-quinoline-2-carbonyl}-amino)-butyryl]-piperazine-1-carboxylic acid butyl ester] registered a half-inhibitory concentration (IC50) of 0.08 µM.

The molecule `CCCCOC(=O)N1CCN(C(=O)[C@H](CCOC)NC(=O)c2cc(OCC(=O)N3CCC[C@H]3C(=O)NC3CCC3)c3ccc(C)cc3n2)CC1` [Example 521, 4-[(S)-2-({4-[2-((S)-2-Cyclobutylcarbamoyl-pyrrolidin-1-yl)-2-oxo-ethoxy]-7-methyl-quinoline-2-carbonyl}-amino)-4-methoxy-butyryl]-piperazine-1-carboxylic acid butyl ester] had an IC50 of 0.12 µM.

`CCCCOC(=O)N1CCN(C(=O)CNC(=O)c2cc(OCC(=O)N3CCC[C@H]3C(=O)NC3CCCC3)c3ccc(C)cc3n2)CC1` [Example 594, 4-[2-({4-[2-((S)-2-Cyclopentylcarbamoyl-pyrrolidin-1-yl)-2-oxo-ethoxy]-7-methyl-quinoline-2-carbonyl}-amino)-acetyl]-piperazine-1-carboxylic acid butyl ester] came in with a half-maximal inhibitory concentration (IC50) of 0.02 µM.

Molecule `CCCCOC(=O)N1CCN(C(=O)CNC(=O)c2cc(OCC(=O)N3C[C@H](O)C[C@H]3C(=O)NC3CCC3)c3ccc(C)cc3n2)CC1` [Example 689, 4-[2-({4-[2-((2S,4R)-2-Cyclobutylcarbamoyl-4-hydroxy-pyrrolidin-1-yl)-2-oxo-ethoxy]-7-methyl-quinoline-2-carbonyl}-amino)-acetyl]-piperazine-1-carboxylic acid butyl ester] showed an IC50 of 0.0006 µM.

For `CCCCOC(=O)N1CCN(C(=O)[C@H](CCc2nnn(C)n2)NC(=O)c2cc(OCC(=O)N3CCC[C@H]3C(=O)NC3CCC3)c3ccc(C)cc3n2)CC1` [Example 693, 4-[(S)-2-({4-[2-((S)-2-Cyclobutylcarbamoyl-pyrrolidin-1-yl)-2-oxo-ethoxy]-7-methyl-quinoline-2-carbonyl}-amino)-4-(2-methyl-2H-tetrazol-5-yl)-butyryl]-piperazine-1-carboxylic acid butyl ester], the IC50 was found to be 0.077 µM.

The assay is the same for the next values; noted with them: human PRP, aggregation induced by ADP, measured over 6 minutes at 37° C.
For “4-{2-[(7-Methyl-4-{2-oxo-2-[4-(pyrrolidine-1-carbonyl)-piperidin-1-yl]-ethoxy}-quinoline-2-carbonyl)-amino]-acetyl}-piperazine-1-carboxylic acid butyl ester [Example 660]”, the midpoint of inhibition, the IC50, lay at 0.094 µM.
